Data: the NIST ThermoML archive (doi:10.1016/j.tca.2004.11.004)
± gives the expanded uncertainty stated by the source.

How the values were obtained:
[1] = Crystal; DTA
[2] = Molar enthalpy of transition or fusion; details: Crystal; DSC

SMILES | Normal melting temperature [1] | Molar enthalpy of transition or fusion [2]
CC(=O)[O-].[Cs+] [cesium acetate] | 191.6 ± 0.4 °C | 2.63 ± 0.0956 kcal/mol
CC(=O)[O-].[Li+] [lithium acetate] | 283.5 ± 0.4 °C | 3.01 ± 0.0956 kcal/mol
CC(=O)[O-].[K+] [potassium ethanoate] | 305.2 ± 0.4 °C | 2.87 ± 0.0956 kcal/mol
CC(=O)[O-].[Na+] [sodium ethanoate] | 329.4 ± 0.4 °C | 4.16 ± 0.0956 kcal/mol
CC(=O)[O-].[Rb+] [rubidium acetate] | 240.5 ± 0.4 °C | 2.13 ± 0.191 kcal/mol
